Test results as given in US20150141435A1, “2-PYRIDONE ANTIMICROBIAL COMPOSITIONS” (Emergent BioSolutions, priority 2010, published 2015).
Where a name gives a salt, the structure may show the parent alone. Read-outs that look alike come from different tables or passages of the source.

Experiments:
Type in all cases: cell-based
[1] = test system: S. aureus BAA-1720 (MRSA, FQ-R); experiment: MIC, CLSI broth microdilution (Table 1); settings: Staphylococcus aureus, read-out: MIC S. aureus BAA-1720 (MRSA, FQ-R)
P. aeruginosa ATCC 27853 = experiment: MIC, CLSI broth microdilution (Table 2); settings: Pseudomonas aeruginosa
K. pneumoniae ATCC 33495 = experiment: MIC, CLSI broth microdilution (Table 2); settings: Klebsiella pneumoniae
[2] = test system: S. aureus ATCC 43300 (MRSA, FQ-S); experiment: MIC, CLSI broth microdilution (Table 1); settings: Staphylococcus aureus, read-out: MIC S. aureus ATCC 43300 (MRSA, FQ-S)
[3] = test system: S. maltophilia ATCC 17677; experiment: MIC, CLSI broth microdilution (Table 2); settings: Stenotrophomonas maltophilia
H. influenzae ATCC 49247 = experiment: MIC, CLSI broth microdilution (Table 2); settings: Haemophilus influenzae
S. aureus ATCC 25923 = experiment: MIC, CLSI broth microdilution (Table 1); settings: Staphylococcus aureus
A. baumannii ATCC 19606 = experiment: MIC, CLSI broth microdilution (Table 2); settings: Acinetobacter baumannii
E. faecalis ATCC 29212 = experiment: MIC, CLSI broth microdilution (Table 1); settings: Enterococcus faecalis
E. faecium ATCC 19434 = experiment: MIC, CLSI broth microdilution (Table 1); settings: Enterococcus faecium
E. coli ATCC 25922 = experiment: MIC, CLSI broth microdilution (Table 2); settings: Escherichia coli
S. pneumonia ATCC 49619 = experiment: MIC, CLSI broth microdilution (Table 1); settings: Streptococcus pneumoniae
[4] = Gram positive, MHB, 37° C., 16-20 hours
[5] = ATCC27853, Gram negative, MHB, 37° C., 16-20 hours, read-out: MIC P. aeruginosa ATCC 27853
[6] = ATCC33495, Gram negative, MHB, 37° C., 16-20 hours, read-out: MIC K. pneumoniae ATCC 33495
[7] = ATCC17677, Gram negative, MHB, 37° C., 16-20 hours, read-out: MIC S. maltophilia ATCC 17677
[8] = ATCC49247, Gram negative, MHB, 37° C., 16-20 hours, read-out: MIC H. influenzae ATCC 49247
[9] = ATCC25923, Gram positive, MHB, 37° C., 16-20 hours, read-out: MIC S. aureus ATCC 25923
[10] = ATCC19606, Gram negative, MHB, 37° C., 16-20 hours, read-out: MIC A. baumannii B. ATCC 19606
[11] = ATCC29212, Gram positive, MHB, 37° C., 16-20 hours, read-out: MIC E. faecalis ATCC 29212
[12] = ATCC19434, Gram positive, MHB, 37° C., 16-20 hours, read-out: MIC E. faecium ATCC 19434
[13] = ATCC25922, Gram negative, MHB, 37° C., 16-20 hours, read-out: MIC E. coli ATCC 25922
[14] = ATCC49619, Gram positive, MHB, 37° C., 16-20 hours, read-out: MIC S. pneumonia ATCC 49619

SMILES | MIC [1, 4] | MIC (P. aeruginosa ATCC 27853; [5]) | MIC (K. pneumoniae ATCC 33495; [6]) | MIC [2, 4] | MIC [3, 7] | MIC (H. influenzae ATCC 49247; [8]) | MIC (S. aureus ATCC 25923; [9]) | MIC (A. baumannii ATCC 19606; [10]) | MIC (E. faecalis ATCC 29212; [11]) | MIC (E. faecium ATCC 19434; [12]) | MIC (E. coli ATCC 25922; [13]) | MIC (S. pneumonia ATCC 49619; [14]) | further results
Cc1c(N2CCNCC2)ccn2c(=O)c(C(=O)O)cc(C3CC3)c12 [Example 34 K salt, 1-cyclopropyl-9-methyl-4-oxo-8-piperazin-1-yl-quinolizine-3-carboxylic acid] | > 8 µg/mL | 1 µg/mL | 0.125 to 0.5 µg/mL | 0.5 µg/mL | 1 µg/mL | 0.064 µg/mL | 0.5 µg/mL | 1 µg/mL | 4 µg/mL | > 8 µg/mL | 0.064 µg/mL | 2 µg/mL | –
Cc1c(N2CCC[C@H](N)C2)ccn2c(=O)c(C(=O)O)cc(C3CC3)c12 [Example 35 K salt, 8-[(3S)-3-amino-1-piperidyl]-1-cyclopropyl-9-methyl-4-oxo-quinolizine-3-carboxylic acid] | 0.5 µg/mL | 0.5 µg/mL | 0.125 to 0.5 µg/mL | 0.032 µg/mL | 0.125 µg/mL | 0.008 to 0.016 µg/mL | 0.032 µg/mL | 0.25 µg/mL | 0.125 µg/mL | 2 µg/mL | 0.032 µg/mL | 0.032 µg/mL | –
Cc1c(-c2ccc(C(N)=O)cc2)ccn2c(=O)c(C(=O)O)cc(C3CC3)c12 [Example 36 K salt, 8-(4-carbamoyl-phenyl)-1-cyclopropyl-9-methyl-4-oxo-4H-quinolizine-3-carboxylic acid] | 0.5 µg/mL | 8 µg/mL | 0.25 µg/mL | 0.016 µg/mL | 0.125 µg/mL | 0.008 µg/mL | 0.016 to 0.032 µg/mL | 0.5 µg/mL | 0.032 µg/mL | 0.5 µg/mL | 0.125 µg/mL | 0.064 µg/mL | –
Cc1c(-c2ccc(C(=O)O)cc2)ccn2c(=O)c(C(=O)O)cc(C3CC3)c12 [Example 37 K salt, 8-(4-carboxy-phenyl)-1-cyclopropyl-9-methyl-4-oxo-4H-quinolizine-3-carboxylic acid] | 8 µg/mL | > 8 µg/mL | > 8 µg/mL | 0.125 µg/mL | > 8 µg/mL | 0.064 µg/mL | 2 µg/mL | > 8 µg/mL | 0.5 µg/mL | > 8 µg/mL | > 8 µg/mL | 1 µg/mL | –
Cc1c(-c2cc(F)c(N)cc2F)c(F)cn2c(=O)c(C(=O)O)cc(C3CC3)c12 [Example 38 K salt, 8-(4-amino-2,5-difluoro-phenyl)-1-cyclopropyl-7-fluoro-9-methyl-4-oxo-4H-quinolizine-3-carboxylic acid] | 0.064 µg/mL | > 8 µg/mL | 1 to 2 µg/mL | ≤ 0.004 µg/mL | 0.25 µg/mL | ≤ 0.004 µg/mL | ≤ 0.004 µg/mL | 0.125 µg/mL | 0.008 to 0.016 µg/mL | > 8 µg/mL | 0.064 to 0.125 µg/mL | 0.016 µg/mL | –
Cc1c(-c2cc(F)c(N)c(F)c2)ccn2c(=O)c(C(=O)O)cc(C3CC3)c12 [Example 39 K salt, 8-(4-amino-3,5-difluoro-phenyl)-1-cyclopropyl-9-methyl-4-oxo-4H-quinolizine-3-carboxylic acid] | – | – | – | – | – | – | – | – | – | – | – | – | MIC [1]: 0.125 µg/mL; MIC (P. aeruginosa ATCC 27853; ATCC27853, read-out: MIC P. aeruginosa ATCC 27853): 2 µg/mL; MIC (K. pneumoniae ATCC 33495; ATCC33495, read-out: MIC K. pneumoniae ATCC 33495): 0.125 µg/mL; MIC [2]: ≤ 0.004 µg/mL; MIC ([3]; ATCC17677, read-out: MIC S. maltophilia ATCC 17677): 0.064 µg/mL; MIC (H. influenzae ATCC 49247; ATCC49247, read-out: MIC H. influenzae ATCC 49247): ≤ 0.004 µg/mL; MIC (S. aureus ATCC 25923; ATCC25923, read-out: MIC S. aureus ATCC 25923): ≤ 0.004 µg/mL; MIC (A. baumannii ATCC 19606; ATCC19606, read-out: MIC A. baumannii B. ATCC 19606): 0.064 µg/mL; MIC (E. faecalis ATCC 29212; ATCC29212, read-out: MIC E. faecalis ATCC 29212): 0.016 µg/mL; MIC (E. faecium ATCC 19434; ATCC19434, read-out: MIC E. faecium ATCC 19434): 0.25 µg/mL; MIC (E. coli ATCC 25922; ATCC25922, read-out: MIC E. coli ATCC 25922): 0.064 µg/mL; MIC (S. pneumonia ATCC 49619; ATCC49619, read-out: MIC S. pneumonia ATCC 49619): 0.032 µg/mL
Cc1c(-c2ccc(C#N)c(F)c2)ccn2c(=O)c(C(=O)O)cc(C3CC3)c12 [Example 40 K salt, 8-(4-cyano-3-fluoro-phenyl)-1-cyclopropyl-9-methyl-4-oxo-4H-quinolizine-3-carboxylic acid] | 0.5 to 1 µg/mL | > 8 µg/mL | 0.5 to 1 µg/mL | 0.016 µg/mL | 0.25 µg/mL | 0.016 µg/mL | 0.016 µg/mL | 0.25 µg/mL | 0.064 µg/mL | 2 µg/mL | 0.125 to 0.25 µg/mL | 0.125 µg/mL | –
Cc1c(-c2ccc(C(=O)O)cc2)c(F)cn2c(=O)c(C(=O)O)cc(C3CC3)c12 [Example 41 K salt, 8-(4-carboxy-phenyl)-1-cyclopropyl-7-fluoro-9-methyl-4-oxo-4H-quinolizine-3-carboxylic acid] | > 8 µg/mL | > 8 µg/mL | > 8 µg/mL | 0.25 µg/mL | > 8 µg/mL | 0.032 µg/mL | 2 µg/mL | > 8 µg/mL | 0.25 µg/mL | > 8 µg/mL | > 8 µg/mL | 0.5 to 1 µg/mL | –
Cc1c(-c2cc[nH]c2)ccn2c(=O)c(C(=O)O)cc(C3CC3)c12 [Example 43 K salt, 1-cyclopropyl-9-methyl-4-oxo-8-(1H-pyrrol-3-yl)-4H-quinolizine-3-carboxylic acid] | 2 µg/mL | 4 µg/mL | 0.125 µg/mL | 0.032 µg/mL | 0.25 µg/mL | 0.008 µg/mL | 0.016 to 0.032 µg/mL | 0.25 µg/mL | 0.125 µg/mL | 4 µg/mL | 0.064 to 0.125 µg/mL | 0.5 µg/mL | –
Cc1c(-c2ccc(F)cc2)ccn2c(=O)c(C(=O)O)cc(C3CC3)c12 [Example 44 K salt, 1-cyclopropyl-8-(4-fluoro-phenyl)-9-methyl-4-oxo-4H-quinolizine-3-carboxylic acid] | 0.5 µg/mL | 2 µg/mL | 0.25 µg/mL | 0.016 µg/mL | 0.25 µg/mL | 0.008 µg/mL | 0.016 µg/mL | 0.125 to 0.25 µg/mL | 0.064 µg/mL | 0.5 µg/mL | 0.125 µg/mL | 0.25 µg/mL | –
